US10519099B2, “Cystobactamides” (priority 2014, dated 2019)
Converted amounts (≈) assume the structure as drawn. Read-outs that look alike come from different tables or passages of the source.

Tests used:
[1] = test system: E. coli WT-3 [gyrA(S83L, D87G)]; assay: MIC microdilution, E. coli WT-3 [gyrA(S83L, D87G)]; type: cell-based, Escherichia coli; conditions: Escherichia coli
Experimental: (§1) Indicator strains used in susceptibility assays were either part of our strain collection or purchased from the German Collection of Microorgansims and Cell Cultures (DSMZ) or from the American Type Culture Collection (ATCC). E. coli strain WT and corresponding E. coli mutants were kindly provided by Prof. Dr. P. Heisig, Pharmaceutical Biology and Microbiology, University of Hamburg. E. coli strains JW0401-1 (WT) and Δtsx were obtained from the CGSC collection.
(§2) MIC values were determined in standardized microdilution assays. Overnight cultures were diluted in the appropriate growth medium to achieve an inoculum of 10^4-10^6 cfu/mL. Yeasts were grown in Myc medium (1% phytone peptone, 1% glucose, 50 mM HEPES, pH 7.0), S. pneumonia and Enterococcus spp. in tryptic soy broth (TSB: 1.7% peptone casein, 0.3% peptone soymeal, 0.25% glucose, 0.5% NaCl, 0.25% K2HPO4; pH 7.3); M. smegmatis in Middlebrook 7H9 medium supplemented with 10% Middlebrook ADC enrichment and 2 ml/I glycerol). All other listed bacteria were grown in Müller-Hinton broth (0.2% beef infusion solids, 1.75% casein hydrolysate, 0.15% starch, pH 7.4). Cystobactamides and reference drugs were added directly to the cultures in sterile 96-well plates as duplicates and serial dilutions were prepared. Microorganisms were grown on a microplate shaker (750 rpm, 30-37° C., 18-48 h), except S. pneumonia, which was grown at non-shaking conditions (37° C., 5% CO2, 18 h). Growth inhibition was assessed by visual inspection and the MIC was defined as the lowest concentration of compound that inhibited visible growth.

[2] = test system: Mycobacterium smegmatis ATCC700084; assay: MIC microdilution, Mycobacterium smegmatis ATCC700084; type: cell-based; conditions: Mycolicibacterium smegmatis
Experimental: as §1
as §2, with “Cystobactamides and reference drugs were added directly to the cultures in sterile 96-well plates as duplicates and serial dilutions were prepared. Microorganisms were grown on a microplate shaker (750 rpm, 30-37° C., 18-48 h), except S. pneumonia, which was grown at non-shaking conditions (37° C., 5% CO2, 18 h).” left out

[3] = test system: Proteus vulgaris DSM-2140; assay: MIC microdilution, P. vulgaris DSM-2140; type: cell-based; conditions: Proteus vulgaris, DSM2140
Experimental: as §1, §2

[4] = test system: Enterococcus faecium DSM-20477; assay: MIC microdilution, Enterococcus faecium DSM-20477; type: cell-based; conditions: Enterococcus faecium
Experimental: as §1, §2

[5] = test system: Escherichia coli ATCC25922; assay: MIC microdilution, E. coli ATCC25922; type: cell-based
Experimental: as §1
as §2, with “Cystobactamides and reference drugs were added directly to the cultures in sterile 96-well plates as duplicates and serial dilutions were prepared. Microorganisms were grown on a microplate shaker (750 rpm, 30-37° C., 18-48 h), except S. pneumonia, which was grown at non-shaking conditions (37° C., 5% CO2, 18 h).” left out

[6] = test system: Escherichia coli MI [gyrA(S83L)]; assay: MIC microdilution, E. coli MI [gyrA(S83L)]; type: cell-based; conditions: read-out: MIC Escherichia coli MI [gyrA(S83L)]
Experimental: as §1
as §2, with “Cystobactamides and reference drugs were added directly to the cultures in sterile 96-well plates as duplicates and serial dilutions were prepared. Microorganisms were grown on a microplate shaker (750 rpm, 30-37° C., 18-48 h), except S. pneumonia, which was grown at non-shaking conditions (37° C., 5% CO2, 18 h).” left out

[7] = test system: Staphylococcus epidermidis DSM-28765; assay: MIC microdilution, Staphylococcus epidermidis DSM-28765; type: cell-based; conditions: Staphylococcus epidermidis
Experimental: as §1, §2

[8] = test system: E. coli DSM-26863 (tolC3); assay: MIC microdilution, E. coli DSM-26863 (tolC3); type: cell-based, Escherichia coli; conditions: Escherichia coli
Experimental: as §1, §2

[9] = test system: Enterobacter aerogenes DSM-30053; assay: MIC microdilution, Enterobacter aerogenes DSM-30053; type: cell-based; conditions: Klebsiella aerogenes
Experimental: as §1
as §2, with “Cystobactamides and reference drugs were added directly to the cultures in sterile 96-well plates as duplicates and serial dilutions were prepared. Microorganisms were grown on a microplate shaker (750 rpm, 30-37° C., 18-48 h), except S. pneumonia, which was grown at non-shaking conditions (37° C., 5% CO2, 18 h).” left out

[10] = test system: CHO-K1 (Chinese hamster ovary cell line); assay: Cytotoxicity (MTT), CHO-K1 cell line; type: cell-based; conditions: Cricetulus griseus, CHO-K1, 120 h, 5 d incubation
Experimental: CHO-K1 cells were obtained from the DSMZ and were cultured under conditions recommended by the depositor. Cells were seeded at 6×10^3 cells/well of 96-well plates in 180 μl complete medium and treated with compounds in serial dilution after 2 h of equilibration. Each sample was tested in duplicate as well as the internal DMSO control. After 5 d incubation, 20 μl of 5 mg/ml MTT (thiazolyl blue tetrazolium bromide) in PBS was added per well and it was further incubated for 2 h at 37° C. The medium was then discarded and cells were washed with 100 μl PBS before adding 100 μl 2-propanol/10 N HCl (250:1) in order to dissolve formazan granules. The absorbance at 570 nm was measured using a microplate reader (Tecan Infinite M200Pro), and cell viability was expressed as percentage relative to the respective […] control.

E. coli gyrase = target: T1, E. coli gyrase (Escherichia coli, UniProt P0AES4+P0AES6); assay: E. coli gyrase DNA supercoiling assay; type: biochemical; conditions: read-out: IC50 Ec gyrase (sc)
T1 construct: purchased Inspiralis, Norwich, UK
Experimental: (§3) To test the anti-gyrase activity of cystobactamides, commercial E. coli and P. aeruginosa gyrase supercoiling kits (Inspiralis, Norwich, UK) were used. For standard reactions 0.5 μg relaxed plasmid were mixed with 1 unit gyrase in 1× reaction buffer (see kit manual) and incubated for 30 min at 37° C. The reactions were quenched by the addition of DNA gel loading buffer containing 10% (w/v) SDS. The samples were separated on 1% (w/v) agarose gels and DNA was visualized using EtBr. All natural products stock solutions and dilutions were prepared in 100% DMSO and added to the supercoiling reactions giving a final DMSO concentration of 2% (v/v).

P. aeruginosa gyrase = target: T2, P. aeruginosa gyrase (Pseudomonas aeruginosa, UniProt P48372+Q9I7C2); assay: P. aeruginosa gyrase DNA supercoiling assay; type: biochemical; conditions: read-out: IC50 Pa gyrase (sc)
T2 construct: purchased Inspiralis, Norwich, UK
Experimental: as §3

E. coli JW0401-1 (WT) = assay: MIC microdilution, E. coli JW0401-1 (WT); type: cell-based, Escherichia coli; conditions: Escherichia coli; Gram-negative set
Experimental: as §1
as §2, with “Cystobactamides and reference drugs were added directly to the cultures in sterile 96-well plates as duplicates and serial dilutions were prepared. Microorganisms were grown on a microplate shaker (750 rpm, 30-37° C., 18-48 h), except S. pneumonia, which was grown at non-shaking conditions (37° C., 5% CO2, 18 h).” left out

[11] = test system: Staphylococcus aureus ATCC29213; assay: MIC microdilution, Staphylococcus aureus ATCC29213; type: cell-based; conditions: ATCC29213, read-out: MIC Staphylococcus aureus ATCC29213
Experimental: as §1
as §2, with “Cystobactamides and reference drugs were added directly to the cultures in sterile 96-well plates as duplicates and serial dilutions were prepared. Microorganisms were grown on a microplate shaker (750 rpm, 30-37° C., 18-48 h), except S. pneumonia, which was grown at non-shaking conditions (37° C., 5% CO2, 18 h).” left out

E. coli Δtsx = assay: MIC microdilution, E. coli Δtsx; type: cell-based, Escherichia coli; conditions: Gram-negative set
Experimental: as §1
as §2, with “Cystobactamides and reference drugs were added directly to the cultures in sterile 96-well plates as duplicates and serial dilutions were prepared. Microorganisms were grown on a microplate shaker (750 rpm, 30-37° C., 18-48 h), except S. pneumonia, which was grown at non-shaking conditions (37° C., 5% CO2, 18 h).” left out

[12] = test system: Enterobacter cloacae DSM-30054; assay: MIC microdilution, Enterobacter cloacae DSM-30054; type: cell-based; conditions: Enterobacter cloacae, DSM30054, read-out: MIC Enterobacter cloacae DSM-30054
Experimental: Dr. P. Heisig, Pharmaceutical Biology and Microbiology, University of Hamburg.
Overnight cultures were diluted in the appropriate growth medium to achieve an inoculum of 10^4-10^6 cfu/mL. […] Cystobactamides and reference drugs were added directly to the cultures in sterile 96-well plates as duplicates and serial dilutions were prepared. Microorganisms were grown on a microplate shaker (750 rpm, 30-37° C., 18-48 h), except S. pneumonia, which was grown at non-shaking conditions (37° C., 5% CO2, 18 h). Growth inhibition was assessed by visual inspection and the MIC was defined as the lowest concentration of compound that inhibited visible growth.

[13] = read-out: MIC E. coli WT-3 [gyrA(S83L, D87G)]
[14] = read-out: MIC Escherichia coli WT-3 [gyrA(S83L, D87G)]
[15] = Gram-negative set, read-out: MIC P. vulgaris DSM-2140
[16] = larger panel, read-out: MIC Proteus vulgaris DSM-2140
[17] = DSM26863, read-out: MIC E. coli DSM-26863 (tolC3)
[18] = DSM26863, read-out: MIC Escherichia coli DSM-26863 (tolC3)

O=C(O)c1cn(C2CC2)c2cc(N3CCNCC3)c(F)cc2c1=O [CP, Ciprofloxacin, reference compound]
MIC [1, 13]: 0.8 µg/mL (≈ 2.41 µM) | MIC [1, 14]: 0.8 to 1.6 µg/mL (≈ 2.41 to 4.83 µM) | MIC ([2]; ATCC700084, larger panel, read-out: MIC Mycobacterium smegmatis ATCC700084): 0.2 to 0.4 µg/mL (≈ 0.604 to 1.21 µM) | MIC [3, 15]: 0.01 µg/mL (≈ 0.0302 µM) | MIC [3, 16]: 0.01 µg/mL (≈ 0.0302 µM) | MIC ([4]; DSM20477, larger panel, read-out: MIC Enterococcus faecium DSM-20477): > 6.4 µg/mL | MIC ([5]; ATCC25922, larger panel, read-out: MIC Escherichia coli ATCC25922): 0.006 µg/mL (≈ 0.0181 µM) | MIC [6]: 0.4 to 0.8 µg/mL (≈ 1.21 to 2.41 µM) | MIC ([7]; DSM28765, larger panel, read-out: MIC Staphylococcus epidermidis DSM-28765): 0.2 µg/mL (≈ 0.604 µM) | MIC [8, 17]: ≤ 0.003 µg/mL | MIC [8, 18]: 0.003 µg/mL (≈ 0.00905 µM) | MIC ([9]; DSM30053, larger panel, read-out: MIC Enterobacter aerogenes DSM-30053): 0.1 to 0.2 µg/mL (≈ 0.302 to 0.604 µM)

COC(C(N)=O)C(NC(=O)c1ccc(NC(=O)c2ccc([N+](=O)[O-])cc2)cc1)C(=O)Nc1ccc(C(=O)Nc2ccc(C(=O)Nc3ccc(C(=O)O)cc3OC(C)C)c(O)c2OC(C)C)cc1 (stereo not shown) [Cys 919-2]
MIC [1, 13]: 64 µg/mL (≈ 69.6 µM) | MIC [1, 14]: 16 to 32 µg/mL (≈ 17.4 to 34.8 µM) | IC50 [10]: ~50000 nM | IC50 (E. coli gyrase): 670 nM | MIC ([2]; ATCC700084, read-out: MIC Mycobacterium smegmatis ATCC700084): > 64 µg/mL | MIC [3, 15]: 4 µg/mL (≈ 4.35 µM) | MIC [3, 16]: 4 µg/mL (≈ 4.35 µM) | IC50 (P. aeruginosa gyrase): 340 nM | MIC (E. coli JW0401-1 (WT)): 1 µg/mL (≈ 1.09 µM) | MIC ([4]; DSM20477, read-out: MIC Enterococcus faecium DSM-20477): 0.25 µg/mL (≈ 0.272 µM) | MIC ([5]; ATCC25922, read-out: MIC Escherichia coli ATCC25922): 0.5 µg/mL (≈ 0.544 µM) | MIC [11]: 0.1 µg/mL (≈ 0.109 µM) | MIC [6]: 4 µg/mL (≈ 4.35 µM) | MIC E. coli Δtsx (E. coli Δtsx): 1 µg/mL (≈ 1.09 µM) | MIC ([7]; DSM28765, read-out: MIC Staphylococcus epidermidis DSM-28765): 0.25 µg/mL (≈ 0.272 µM) | MIC [8, 17]: 0.25 µg/mL (≈ 0.272 µM) | MIC [8, 18]: 0.5 to 1 µg/mL (≈ 0.544 to 1.09 µM) | MIC [12]: > 64 µg/mL | MIC ([9]; DSM30053, read-out: MIC Enterobacter aerogenes DSM-30053): > 64 µg/mL
